Tests used:
Melanocortin receptor 4 = Melanocortin receptor 4 (Homo sapiens, UniProt P32245); assay: Binding affinity towards human melanocortin 4 receptor was determined using [125I]-NDP-alpha-MSH as radioligand transfected in HEK293 human embryonic kidney cells; assay type: cell-based; details: read-out: EC50
[1] = Hill coefficient was determined; assay type: ADME

Melanocortin receptor 4, sequence (P32245 whole entry): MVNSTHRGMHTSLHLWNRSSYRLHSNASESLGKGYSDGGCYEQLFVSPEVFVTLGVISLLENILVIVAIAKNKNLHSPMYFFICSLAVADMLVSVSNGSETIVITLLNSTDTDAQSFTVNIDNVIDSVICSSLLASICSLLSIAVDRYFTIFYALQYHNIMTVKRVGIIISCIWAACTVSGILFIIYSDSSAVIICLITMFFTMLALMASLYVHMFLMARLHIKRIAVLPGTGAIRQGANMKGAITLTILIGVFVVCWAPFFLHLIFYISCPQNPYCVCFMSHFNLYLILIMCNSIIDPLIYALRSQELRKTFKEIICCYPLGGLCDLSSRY

Row | SMILES | binding affinity (radioligand displacement) (Melanocortin receptor 4) | Hill coefficient [1] | binding affinity (radioligand displacement) (Melanocortin receptor 4; hek293)
1 | CC(=O)N[C@@H](Cc1c[nH]cn1)C(=O)N[C@H](Cc1ccccc1)C(=O)N[C@@H](CCCN=C(N)N)C(=O)N[C@@H](Cc1c[nH]c2ccccc12)C(=O)N[C@@H](Cc1c[nH]cn1)C(=O)N[C@H](Cc1ccccc1)C(=O)N[C@@H](CCCN=C(N)N)C(=O)N[C@@H](Cc1c[nH]c2ccccc12)C(N)=O | 264 nM | 0.9 | –
2 | CC(=O)N[C@@H](Cc1c[nH]cn1)C(=O)N[C@H](Cc1ccccc1)C(=O)N[C@@H](CCCN=C(N)N)C(=O)N[C@@H](Cc1c[nH]c2ccccc12)C(=O)N1CCC[C@H]1C(=O)NCC(=O)N1CCC[C@H]1C(=O)N[C@@H](Cc1c[nH]cn1)C(=O)N[C@H](Cc1ccccc1)C(=O)N[C@@H](CCCN=C(N)N)C(=O)N[C@@H](Cc1c[nH]c2ccccc12)C(N)=O | 14 nM | 0.84 | –
3 | CC(=O)N[C@@H](Cc1c[nH]cn1)C(=O)N[C@H](Cc1ccccc1)C(=O)N[C@@H](CCCN=C(N)N)C(=O)N[C@@H](Cc1c[nH]c2ccccc12)C(=O)Nc1ccc(C(=O)Nc2ccc(C(=O)N[C@@H](Cc3c[nH]cn3)C(=O)N[C@H](Cc3ccccc3)C(=O)N[C@@H](CCCN=C(N)N)C(=O)N[C@@H](Cc3c[nH]c4ccccc34)C(N)=O)cc2)cc1 | 123 nM | 1.12 | –
4 | CC(=O)N[C@@H](Cc1c[nH]cn1)C(=O)N[C@H](Cc1ccccc1)C(=O)N[C@@H](CCCN=C(N)N)C(=O)N[C@@H](Cc1c[nH]c2ccccc12)C(=O)NCCCC[C@H](NC(=O)CCNC(=O)[C@H](Cc1c[nH]c2ccccc12)NC(=O)[C@H](CCCN=C(N)N)NC(=O)[C@@H](Cc1ccccc1)NC(=O)[C@H](Cc1c[nH]cn1)NC(C)=O)C(=O)NCCC(=O)N[C@@H](Cc1c[nH]cn1)C(=O)N[C@H](Cc1ccccc1)C(=O)N[C@@H](CCCN=C(N)N)C(=O)N[C@@H](Cc1c[nH]c2ccccc12)C(N)=O | – | 1.13 | 15 nM
5 | CC(=O)N[C@@H](Cc1c[nH]cn1)C(=O)N[C@H](Cc1ccccc1)C(=O)N[C@@H](CCCN=C(N)N)C(=O)N[C@@H](Cc1c[nH]c2ccccc12)C(=O)NCCC(=O)NCC(=O)NCCC(=O)NCC(=O)NCCC(=O)N[C@@H](Cc1c[nH]cn1)C(=O)N[C@H](Cc1ccccc1)C(=O)N[C@@H](CCCN=C(N)N)C(=O)N[C@@H](Cc1c[nH]c2ccccc12)C(N)=O | 231 nM | 1.09 | –
6 | CC(=O)N[C@@H](Cc1c[nH]cn1)C(=O)N[C@H](Cc1ccccc1)C(=O)N[C@@H](CCCN=C(N)N)C(=O)N[C@@H](Cc1c[nH]c2ccccc12)C(=O)NCCOCCOCCNC(=O)CCC(=O)N[C@@H](Cc1c[nH]cn1)C(=O)N[C@H](Cc1ccccc1)C(=O)N[C@@H](CCCN=C(N)N)C(=O)N[C@@H](Cc1c[nH]c2ccccc12)C(N)=O | 234 nM | 1.1 | –
7 | CC(=O)N[C@@H](Cc1cnc[nH]1)C(=O)N[C@H](Cc1ccccc1)C(=O)N[C@@H](CCCNC(=N)N)C(=O)N[C@@H](Cc1c[nH]c2ccccc12)C(=O)Nc1ccc(C(=O)Nc2ccc(C(=O)Nc3ccc(C(=O)N[C@@H](Cc4cnc[nH]4)C(=O)N[C@H](Cc4ccccc4)C(=O)N[C@@H](CCCNC(=N)N)C(=O)N[C@@H](Cc4c[nH]c5ccccc45)C(N)=O)cc3)cc2)cc1 | 164 nM | 1.05 | –
8 | CC(=O)N[C@@H](Cc1c[nH]cn1)C(=O)N[C@H](Cc1ccccc1)C(=O)N[C@@H](CCCN=C(N)N)C(=O)N[C@@H](Cc1c[nH]c2ccccc12)C(=O)NCCCOCCOCCOCCCNC(=O)CCC(=O)N[C@@H](Cc1c[nH]cn1)C(=O)N[C@H](Cc1ccccc1)C(=O)N[C@@H](CCCN=C(N)N)C(=O)N[C@@H](Cc1c[nH]c2ccccc12)C(N)=O | – | 1.83 | 662 nM
9 | CC(=O)N[C@@H](Cc1c[nH]cn1)C(=O)N[C@H](Cc1ccccc1)C(=O)N[C@@H](CCCN=C(N)N)C(=O)N[C@@H](Cc1c[nH]c2ccccc12)C(=O)NCCC(=O)N[C@@H](Cc1c[nH]cn1)C(=O)N[C@H](Cc1ccccc1)C(=O)N[C@@H](CCCN=C(N)N)C(=O)N[C@@H](Cc1c[nH]c2ccccc12)C(N)=O | 119 nM | 1.39 | –
10 | CC(=O)N[C@@H](Cc1c[nH]cn1)C(=O)N[C@H](Cc1ccccc1)C(=O)N[C@@H](CCCN=C(N)N)C(=O)N[C@@H](Cc1c[nH]c2ccccc12)C(=O)Nc1ccc(C(=O)N[C@@H](Cc2c[nH]cn2)C(=O)N[C@H](Cc2ccccc2)C(=O)N[C@@H](CCCN=C(N)N)C(=O)N[C@@H](Cc2c[nH]c3ccccc23)C(N)=O)cc1 | 38 nM | 1.05 | –
11 | CC(=O)N[C@@H](Cc1c[nH]cn1)C(=O)N[C@H](Cc1ccccc1)C(=O)N[C@@H](CCCN=C(N)N)C(=O)N[C@@H](Cc1c[nH]c2ccccc12)C(=O)NCCC(=O)NCC(=O)NCCC(=O)NCC(=O)NCCC(=O)NCC(=O)NCCC(=O)N[C@@H](Cc1c[nH]cn1)C(=O)N[C@H](Cc1ccccc1)C(=O)N[C@@H](CCCN=C(N)N)C(=O)N[C@@H](Cc1c[nH]c2ccccc12)C(N)=O | 571 nM | 0.88 | –

More lines, now with the values ahead:

Row | binding affinity (radioligand displacement) (Melanocortin receptor 4) | Hill coefficient [1] | binding affinity (radioligand displacement) (Melanocortin receptor 4; hek293) | SMILES
12 | 7 nM | 0.91 | – | CCCC[C@H](NC(C)=O)C(=O)N[C@@H](CCC(=O)O)C(=O)N[C@@H](Cc1cnc[nH]1)C(=O)N[C@H](Cc1ccccc1)C(=O)N[C@@H](CCCNC(=N)N)C(=O)N[C@@H](Cc1c[nH]c2ccccc12)C(=O)NCCC(=O)NCC(=O)NCCC(=O)N[C@@H](CCCC)C(=O)N[C@@H](CCC(=O)O)C(=O)N[C@@H](Cc1cnc[nH]1)C(=O)N[C@H](Cc1ccccc1)C(=O)N[C@@H](CCCNC(=N)N)C(=O)N[C@@H](Cc1c[nH]c2ccccc12)C(N)=O
13 | 9 nM | 1.23 | – | CCCC[C@H](NC(C)=O)C(=O)N[C@@H](CCC(=O)O)C(=O)N[C@@H](Cc1c[nH]cn1)C(=O)N[C@H](Cc1ccccc1)C(=O)N[C@@H](CCCN=C(N)N)C(=O)N[C@@H](Cc1c[nH]c2ccccc12)C(=O)NCCOCCOCCNC(=O)CCC(=O)N[C@@H](CCCC)C(=O)N[C@@H](CCC(=O)O)C(=O)N[C@@H](Cc1c[nH]cn1)C(=O)N[C@H](Cc1ccccc1)C(=O)N[C@@H](CCCN=C(N)N)C(=O)N[C@@H](Cc1c[nH]c2ccccc12)C(N)=O
14 | – | 1.59 | 33 nM | CCCC[C@H](NC(C)=O)C(=O)N[C@@H](CCC(=O)O)C(=O)N[C@@H](Cc1c[nH]cn1)C(=O)N[C@H](Cc1ccccc1)C(=O)N[C@@H](CCCN=C(N)N)C(=O)N[C@@H](Cc1c[nH]c2ccccc12)C(=O)NCCCOCCOCCOCCCNC(=O)CCC(=O)N[C@@H](CCCC)C(=O)N[C@@H](CCC(=O)O)C(=O)N[C@@H](Cc1c[nH]cn1)C(=O)N[C@H](Cc1ccccc1)C(=O)N[C@@H](CCCN=C(N)N)C(=O)N[C@@H](Cc1c[nH]c2ccccc12)C(N)=O
15 | – | 1.56 | 24 nM | CC(=O)N[C@@H](Cc1c[nH]cn1)C(=O)N[C@H](Cc1ccccc1)C(=O)N[C@@H](CCCN=C(N)N)C(=O)N[C@@H](Cc1c[nH]c2ccccc12)C(=O)NCCCC[C@H](NC(=O)CCNC(=O)CNC(=O)CCNC(=O)[C@H](Cc1c[nH]c2ccccc12)NC(=O)[C@H](CCCN=C(N)N)NC(=O)[C@@H](Cc1ccccc1)NC(=O)[C@H](Cc1c[nH]cn1)NC(C)=O)C(=O)NCCC(=O)NCC(=O)NCCC(=O)N[C@@H](Cc1c[nH]cn1)C(=O)N[C@H](Cc1ccccc1)C(=O)N[C@@H](CCCN=C(N)N)C(=O)N[C@@H](Cc1c[nH]c2ccccc12)C(N)=O
16 | – | 0.97 | 122 nM | CCCC[C@H](NC(C)=O)C(=O)N[C@@H](CCC(=O)O)C(=O)N[C@@H](Cc1cnc[nH]1)C(=O)N[C@H](Cc1ccccc1)C(=O)N[C@@H](CCCNC(=N)N)C(=O)N[C@@H](Cc1c[nH]c2ccccc12)C(=O)NCCCOCCOCCOCCCNC(=O)CCC(=O)NCCCOCCOCCOCCCNC(=O)CCC(=O)N[C@@H](CCCC)C(=O)N[C@@H](CCC(=O)O)C(=O)N[C@@H](Cc1cnc[nH]1)C(=O)N[C@H](Cc1ccccc1)C(=O)N[C@@H](CCCNC(=N)N)C(=O)N[C@@H](Cc1c[nH]c2ccccc12)C(N)=O
17 | 143 nM | 0.99 | – | CC(=O)N[C@@H](Cc1cnc[nH]1)C(=O)N[C@H](Cc1ccccc1)C(=O)N[C@@H](CCCNC(=N)N)C(=O)N[C@@H](Cc1c[nH]c2ccccc12)C(=O)NCCC(=O)NCC(=O)NCCC(=O)N[C@@H](Cc1cnc[nH]1)C(=O)N[C@H](Cc1ccccc1)C(=O)N[C@@H](CCCNC(=N)N)C(=O)N[C@@H](Cc1c[nH]c2ccccc12)C(N)=O
